Laboratory results: patent US10301288B2, “Kinase inhibitors” (Topivert Pharma Limited, priority 2013, dated 2019)

Tests used:
[1] = Hydrolytic stability study in DMSO and water (3:1); type: physicochemical; conditions: 1 mg/mL
Description: General HPLC Procedure • Agilent, Waters X-Select C18, 2.5 μm, 4.6×30 mm column, 4 min method, 5-95% MeCN/water (0.1% formic acid). • Flow rate 2.5 ml/min • Column Oven Temperature 40° C. • Detection 254 nm.
Sample Preparation • A 1.0 mg sample of test compound was dissolved in 750 μL of DMSO. Water (250 μL) was added slowly, ensuring no precipitation occurred.
Recording Stability • A 50 μL aliquot of the test solution was removed and analysed in duplicate by 5 μL HPLC injections. The peak area for the test compound was recorded following manual integration of the corresponding UV trace. • The test solution was heated to 60° C., with stirring, and 50 μL aliquots removed for HPLC analysis at 5 and 24 h timepoints.

[2] = system: HT29 cells; test: (d) IL-1β-induced IL-8 release in HT29 cells; type: cell-based; conditions: Homo sapiens, HT-29, read-out: IC50 for Inhibition of Cytokine Release, IL-8
Description: HT29 cells, a human colon adenocarcinoma cell line, are plated in a 96 well plate (24 hrs) and pre-treated with compounds at the desired concentration for 2 hours before addition of 5 ng/ml of IL-1β (Abeam) for 24 hours. Supernatants are harvested for IL-8 quantification by Sandwich ELISA (Duo-set, R&D System). The IC50 is determined from the dose response curve.

[3] = system: TNBS-induced colitis in mice; test: (C) TNBS-induced colitis in mice; type: in vivo, male BDF1 mice; conditions: for LP inflammation / Ulcer grade: 2 days
Description: Non-fasted, 10-12 week old, male BDF1 mice are dosed by oral gavage twice daily with either vehicle (5 mL/kg), reference item (Budesonide 2.5 mg/kg) or test compound (1 or 5 mg/kg) one day before (Day −1) stimulation of the inflammatory response by treatment with 2,4,6-trinitrobenzenesulphonic acid (TNBS) (15 mg/mL in 50% ethanol/50% saline). On Day 0 of the study TNBS (200 μL) is administered intra-colonically via a plastic catheter with BID dosing of the vehicle, reference or test compound continuing for 2 or 4 days. During the study animals are weighed every day and stool observations are made and recorded as a score, based on stool consistency. At the time of sacrifice on Day 2 (or Day 4) the large intestine is removed and the length and weight recorded. Sections of the colon are taken for histopathology scoring to determine disease severity.

[4] = Hepatic microsomal stability, Cynomolgus macaque; type: in vitro ADME; conditions: pooled liver microsomes, read-out: Mean intrinsic clearance
Description: • Microsomal stability assays were performed with incubations of test compounds at 0.1 μM (n=2, final DMSO concentration 0.25%), and carried out using pooled human, […], rat and Cynomolgus macaque hepatic microsomes from Xenotech (Lots 1210153, 0810143 and 1110042, respectively) at 0.25 mg protein/mL in the presence of cofactor, NADPH. The incubations were performed at 37° C. with 100 μL aliquots taken from the incubation, at 0, 2, 5, 10 and 20 minutes (and, in the case of Cynomolgus macaque hepatic microsomes, 40 minutes) and reactions terminated by addition of 100 μL of acetonitrile containing carbamazepine as analytical internal standard. […] Half-life values were calculated from the relationship T1/2 (min)=−0.693/λ • where λ was the slope of the Ln concentration vs time curve. • The in vitro intrinsic clearance, Clint (mL/min/kg), was calculated and scaled to hepatic extraction ratios using the following scaling parameters and formulae.
Formulae Clint(tissue clearance) mL/min/kg=[0.693/t½ (min)]×[1/microsomal protein concentration mg/mL]×[mg microsomes/g liver]×[g liver/kg body weight] […] Half-life values were calculated from the relationship T1/2 (min)=−0.693/λ • where λ was the slope of the Ln concentration vs time curve. • Standard compounds testosterone, midazolam and 4-methylumbelliferone are included in the assay design.

[5] = system: PBMCs; test: (b) LPS-induced TNFα/IL-8 release in PBMC cells; type: cell-based; conditions: Homo sapiens
[6] = system: kinases; test: KinomeScan selectivity scores / number of hits; type: binding
Description: These assays may be conducted by DiscoverX (formerly Ambit; San Diego, Calif.). The percentage inhibition produced by incubation with a test compound may be calculated relative to the non-inhibited control.

[7] = system: PBMCs; test: (c) IL-2 and IFN gamma release in CD3/CD28 stimulated PBMC cells; type: cell-based; conditions: Homo sapiens, read-out: IC50 for Inhibition of Cytokine Release, IFNγ
Description: PBMCs from healthy subjects are separated from whole blood using a density gradient (Lymphoprep, Axis-Shield Healthcare). Cells are added to a 96 well plate pre-coated with a mixture of CD3/CD28 monoclonal antibodies (0.3 ug/ml eBioscience and 3 ug/ml BD Pharmingen respectively). Compound at the desired concentration is then added to the wells and the plate left for 3 days under normal tissue culture conditions. […] The IC50 is determined from the dose response curve.

## C#Cc1cc(Nc2nccc(Oc3ccc(NC(=O)Nc4cc(C(C)(C)C)nn4-c4ccc(C)cc4)c4ccccc34)n2)cc(C(=O)NCCOCCOCCOC)c1 [Example 2, 3-((4-((4-(3-(3-(tert-Butyl)-1-(p-tolyl)-1H-pyrazol-5-yl)ureido)naphthalen-1-yl)oxy)pyrimidin-2-yl)amino)-5-ethynyl-N-(2-(2-(2-methoxyethoxy)ethoxy)ethyl)-benzamide]
[1]; 0 min
  % left: 100%
[1]; 60° C., 300 min
  % left: 83%
[1]; 60° C., 1440 min
  % left: 39%
[2]
  IC50: 3.3 nM
[3]; 1 mg/kg oral BID
  LP inflammation: 2.9 ± 0.3
  Ulcer grade: 3.5 ± 0.4
[3]; 5 mg/kg oral BID
  LP inflammation: 2.2 ± 0.4
  Ulcer grade: 3.0 ± 0.5
[3]; dosed orally at 5 mg/kg
  ulcer grade and epithelial repair compared to the vehicle control (histopathology): marked improvements in ulcer grade and epithelial repair
[3]; oral dosing
  inflammatory cell infiltrate in the reticular and lamina propria zones (histopathology): marked reduction
[4]
  microsomal CLint at 0.1 μM: 445 µL/min/mg
[5]; read-out: IC50 for Inhibition of Cytokine Release, IL-8
  IC50: 2 nM
[5]; read-out: IC50 for Inhibition of Cytokine Release, TNFα
  IC50: 0.7 nM
[6]; 50 nM
  KinomeScan S(1) number of hits: 0
  KinomeScan S(10) number of hits: 8
  KinomeScan S(35) number of hits: 32
[6]; 500 nM
  KinomeScan S(1) number of hits: 4
  KinomeScan S(10) number of hits: 39
  KinomeScan S(35) number of hits: 92
[7]
  IC50: 2.5 nM
